Measured values published in US10681909B2, “Herbicidal triazoles” (FMC Corporation, priority 2014, dated 2020).

Tests used:
[1] = system: velvetleaf; assay: Test C postemergence; type: in vivo, Abutilon theophrasti
In short: (§1)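 Surfactant-containing, non-phytotoxic solvent formulations of each compound were applied either preemergence to seeds in a loam soil–sand blend or postemergence to plants 2 to 18 cm tall (1- to 4-leaf stage). Postemergence plants were grown in peat moss–vermiculite medium.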

[2] = system: pigweed; assay: Test A postemergence; type: in vivo, Amaranthus retroflexus; conditions: 0 to 100 scale (0 no effect, 100 complete control), approx. 10 d
In short: (§2)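 Test chemicals, formulated in a surfactant-containing non-phytotoxic solvent mixture, are applied either as a directed soil spray to newly planted seeds or as a postemergence application to plants at the one- to two-leaf stage (2–10 cm). All plants grow in a loam soil and sand blend.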

[3] = system: galium; assay: Test C postemergence; type: in vivo, Galium aparine
In short: as §1

[4] = system: foxtail, giant; assay: Test A preemergence; type: in vivo, Setaria faberii; conditions: 0 to 100 scale (0 no effect, 100 complete control)
In short: as §2

[5] = system: waterhemp; assay: Test C preemergence; type: in vivo, Amaranthus rudis; conditions: for Waterhemp plant response rating (0 to 100): Preemergence, visual rating after 13 to 15 d; for Plant response rating (scale of 0 to 100 where 0 is no effect and 100 is complete control): Waterhemp, preemergence, 250 g ai/ha
In short: as §1

[6] = system: foxtail, giant; assay: Test A postemergence; type: in vivo, Setaria faberii; conditions: 0 to 100 scale (0 no effect, 100 complete control), approx. 10 d
In short: as §2

[7] = system: barnyardgrass; assay: Test C postemergence; type: in vivo, Echinochloa crus-galli
In short: as §1

[8] = system: soybean; assay: Test C postemergence; type: in vivo, Glycine max
In short: as §1

[9] = system: corn; assay: Test C postemergence; type: in vivo, Zea mays
In short: as §1

[10] = system: johnsongrass; assay: Test C postemergence; type: in vivo, Sorghum halepense
In short: as §1

[11] = system: ragweed; assay: Test C postemergence; type: in vivo, Ambrosia elatior
In short: as §1

[12] = system: ducksalad; assay: Test B flooded paddy test; type: in vivo, Heteranthera limosa; conditions: applied to paddy water at 2-leaf stage, visual rating after 13 to 15 d, scale 0 (no effect) to 100 (complete control)
In short: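 Pots were flooded to 3 cm above the soil at treatment, and compounds were applied directly into the paddy water. That depth was held throughout. After 13 to 15 d in a greenhouse, plants were rated visually against untreated controls.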

[13] = system: crabgrass, large; assay: Test C postemergence; type: in vivo, Digitaria sanguinalis
In short: as §1

[14] = system: pigweed; assay: Test A preemergence; type: in vivo, Amaranthus retroflexus; conditions: 0 to 100 scale (0 no effect, 100 complete control)
In short: as §2

COc1nc(-c2ccc(F)cc2)nn1Cc1ccnc(C(F)(F)F)c1 [Compound 9, 4-[[3-(4-fluorophenyl)-5-methoxy-1H-1,2,4-triazol-1-yl]methyl]-2-(trifluoromethyl)pyridine]
80%: pest or weed control at 125 g/ha ([6]; Setaria faberi, post-emergence, 240 h, 125 g ai/ha, read-out: Plant response rating, Foxtail, Giant)
20%: pest or weed control at 125 g/ha ([12]; Heteranthera limosa, 360 h, 125 g ai/ha, read-out: Plant response rating, Ducksalad, Flood)
80: Plant response rating (scale of 0 to 100 where 0 is no effect and 100 is complete control) ([3]; 62 g ai/ha)
100%: pest or weed control at 125 g/ha ([2]; Amaranthus retroflexus, post-emergence, 240 h, 125 g ai/ha, read-out: Plant response rating, Pigweed) | pest or weed control at 500 g/ha ([2]; Amaranthus retroflexus, post-emergence, 240 h, 500 g ai/ha, read-out: Plant response rating, Pigweed) | pest or weed control at 125 g/ha ([4]; Setaria faberi, pre-emergence, 240 h, 125 g ai/ha, read-out: Plant response rating, Foxtail, Giant) | pest or weed control at 500 g/ha ([4]; Setaria faberi, pre-emergence, 240 h, 500 g ai/ha, approx. 10 d, read-out: Plant response rating, Foxtail, Giant) | pest or weed control at 500 g/ha ([6]; Setaria faberi, post-emergence, 240 h, 500 g ai/ha, read-out: Plant response rating, Foxtail, Giant) | pest or weed control at 125 g/ha ([14]; Amaranthus retroflexus, pre-emergence, 240 h, 125 g ai/ha, read-out: Plant response rating, Pigweed) | pest or weed control at 500 g/ha ([14]; Amaranthus retroflexus, pre-emergence, 240 h, 500 g ai/ha, approx. 10 d, read-out: Plant response rating, Pigweed)
35: Plant response rating (scale of 0 to 100 where 0 is no effect and 100 is complete control) ([1]; 31 g ai/ha) | Plant response rating (scale of 0 to 100 where 0 is no effect and 100 is complete control) ([1]; 62 g ai/ha) | Plant response rating (scale of 0 to 100 where 0 is no effect and 100 is complete control) ([1]; 125 g ai/ha) | Plant response rating (scale of 0 to 100 where 0 is no effect and 100 is complete control) ([9]; 62 g ai/ha)
10: Plant response rating (scale of 0 to 100 where 0 is no effect and 100 is complete control) ([7]; 31 g ai/ha) | Plant response rating (scale of 0 to 100 where 0 is no effect and 100 is complete control) ([7]; 62 g ai/ha) | Plant response rating (scale of 0 to 100 where 0 is no effect and 100 is complete control) ([9]; 16 g ai/ha) | Plant response rating (scale of 0 to 100 where 0 is no effect and 100 is complete control) ([10]; 125 g ai/ha) | Plant response rating (scale of 0 to 100 where 0 is no effect and 100 is complete control) ([13]; 16 g ai/ha) | Plant response rating (scale of 0 to 100 where 0 is no effect and 100 is complete control) ([13]; 31 g ai/ha)
65: Plant response rating (scale of 0 to 100 where 0 is no effect and 100 is complete control) ([3]; 125 g ai/ha)
25: Plant response rating (scale of 0 to 100 where 0 is no effect and 100 is complete control) ([1]; 16 g ai/ha) | Plant response rating (scale of 0 to 100 where 0 is no effect and 100 is complete control) ([8]; 31 g ai/ha) | Plant response rating (scale of 0 to 100 where 0 is no effect and 100 is complete control) ([11]; 31 g ai/ha) | Plant response rating (scale of 0 to 100 where 0 is no effect and 100 is complete control) ([11]; 62 g ai/ha) | Plant response rating (scale of 0 to 100 where 0 is no effect and 100 is complete control) ([13]; 62 g ai/ha) | Plant response rating (scale of 0 to 100 where 0 is no effect and 100 is complete control) ([13]; 125 g ai/ha)
0: Plant response rating (scale of 0 to 100 where 0 is no effect and 100 is complete control) ([10]; 16 g ai/ha)
20: Plant response rating (scale of 0 to 100 where 0 is no effect and 100 is complete control) ([7]; 125 g ai/ha) | Plant response rating (scale of 0 to 100 where 0 is no effect and 100 is complete control) ([9]; 31 g ai/ha) | Plant response rating (scale of 0 to 100 where 0 is no effect and 100 is complete control) ([9]; 125 g ai/ha)
30: Plant response rating (scale of 0 to 100 where 0 is no effect and 100 is complete control) ([8]; 62 g ai/ha) | Plant response rating (scale of 0 to 100 where 0 is no effect and 100 is complete control) ([8]; 125 g ai/ha)
50: Plant response rating (scale of 0 to 100 where 0 is no effect and 100 is complete control) ([3]; 16 g ai/ha) | Plant response rating (scale of 0 to 100 where 0 is no effect and 100 is complete control) ([11]; 125 g ai/ha)
100: Waterhemp plant response rating (0 to 100) ([5]; 31 g ai/ha) | Waterhemp plant response rating (0 to 100) ([5]; 62 g ai/ha) | Plant response rating (scale of 0 to 100 where 0 is no effect and 100 is complete control) [5]
70: Plant response rating (scale of 0 to 100 where 0 is no effect and 100 is complete control) ([3]; 31 g ai/ha)
15: Plant response rating (scale of 0 to 100 where 0 is no effect and 100 is complete control) ([8]; 16 g ai/ha) | Plant response rating (scale of 0 to 100 where 0 is no effect and 100 is complete control) ([11]; 16 g ai/ha)
5: Plant response rating (scale of 0 to 100 where 0 is no effect and 100 is complete control) ([7]; 16 g ai/ha) | Plant response rating (scale of 0 to 100 where 0 is no effect and 100 is complete control) ([10]; 31 g ai/ha) | Plant response rating (scale of 0 to 100 where 0 is no effect and 100 is complete control) ([10]; 62 g ai/ha)

COc1nc(-c2ccccc2)nn1Cc1ccnc(C(F)(F)F)c1 [Compound 32]
60: Plant response rating (scale of 0 to 100 where 0 is no effect and 100 is complete control) ([3]; 125 g ai/ha) | Plant response rating, Foxtail, Giant ([6]; 125 g ai/ha) | Plant response rating (scale of 0 to 100 where 0 is no effect and 100 is complete control) ([11]; 125 g ai/ha) | Plant response rating (scale of 0 to 100 where 0 is no effect and 100 is complete control) ([11]; 250 g ai/ha)
30: Plant response rating (scale of 0 to 100 where 0 is no effect and 100 is complete control) ([8]; 125 g ai/ha) | Plant response rating, Ducksalad, Flood ([12]; 250 g ai/ha)
35: Plant response rating (scale of 0 to 100 where 0 is no effect and 100 is complete control) ([8]; 250 g ai/ha) | Plant response rating (scale of 0 to 100 where 0 is no effect and 100 is complete control) ([9]; 250 g ai/ha) | Plant response rating (scale of 0 to 100 where 0 is no effect and 100 is complete control) ([11]; 31 g ai/ha)
75: Plant response rating (scale of 0 to 100 where 0 is no effect and 100 is complete control) ([3]; 250 g ai/ha)
90: Plant response rating, Pigweed ([2]; 125 g ai/ha) | Plant response rating, Foxtail, Giant ([4]; 125 g ai/ha) | Waterhemp plant response rating (0 to 100) ([5]; 31 g ai/ha) | Plant response rating, Foxtail, Giant ([6]; 500 g ai/ha)
5: Plant response rating (scale of 0 to 100 where 0 is no effect and 100 is complete control) ([13]; 31 g ai/ha)
70: Plant response rating (scale of 0 to 100 where 0 is no effect and 100 is complete control) ([11]; 62 g ai/ha)
20: Plant response rating (scale of 0 to 100 where 0 is no effect and 100 is complete control) ([1]; 125 g ai/ha) | Plant response rating (scale of 0 to 100 where 0 is no effect and 100 is complete control) ([1]; 250 g ai/ha) | Plant response rating (scale of 0 to 100 where 0 is no effect and 100 is complete control) ([3]; 31 g ai/ha) | Plant response rating (scale of 0 to 100 where 0 is no effect and 100 is complete control) ([7]; 125 g ai/ha) | Plant response rating (scale of 0 to 100 where 0 is no effect and 100 is complete control) ([7]; 250 g ai/ha) | Plant response rating (scale of 0 to 100 where 0 is no effect and 100 is complete control) ([8]; 31 g ai/ha) | Plant response rating (scale of 0 to 100 where 0 is no effect and 100 is complete control) ([9]; 62 g ai/ha)
25: Plant response rating (scale of 0 to 100 where 0 is no effect and 100 is complete control) ([8]; 62 g ai/ha) | Plant response rating (scale of 0 to 100 where 0 is no effect and 100 is complete control) ([9]; 125 g ai/ha) | Plant response rating (scale of 0 to 100 where 0 is no effect and 100 is complete control) ([13]; 125 g ai/ha) | Plant response rating (scale of 0 to 100 where 0 is no effect and 100 is complete control) ([13]; 250 g ai/ha)
100: Plant response rating, Pigweed ([2]; 500 g ai/ha) | Plant response rating, Foxtail, Giant ([4]; 500 g ai/ha, approx. 10 d) | Waterhemp plant response rating (0 to 100) ([5]; 62 g ai/ha) | Plant response rating (scale of 0 to 100 where 0 is no effect and 100 is complete control) [5] | Plant response rating, Pigweed ([14]; 125 g ai/ha) | Plant response rating, Pigweed ([14]; 500 g ai/ha, approx. 10 d)
45: Plant response rating (scale of 0 to 100 where 0 is no effect and 100 is complete control) ([3]; 62 g ai/ha)
10: Plant response rating (scale of 0 to 100 where 0 is no effect and 100 is complete control) ([1]; 62 g ai/ha) | Plant response rating (scale of 0 to 100 where 0 is no effect and 100 is complete control) ([7]; 31 g ai/ha) | Plant response rating (scale of 0 to 100 where 0 is no effect and 100 is complete control) ([9]; 31 g ai/ha) | Plant response rating (scale of 0 to 100 where 0 is no effect and 100 is complete control) ([10]; 31 g ai/ha) | Plant response rating (scale of 0 to 100 where 0 is no effect and 100 is complete control) ([10]; 62 g ai/ha) | Plant response rating (scale of 0 to 100 where 0 is no effect and 100 is complete control) ([10]; 125 g ai/ha) | Plant response rating (scale of 0 to 100 where 0 is no effect and 100 is complete control) ([10]; 250 g ai/ha) | Plant response rating (scale of 0 to 100 where 0 is no effect and 100 is complete control) ([13]; 62 g ai/ha)
15: Plant response rating (scale of 0 to 100 where 0 is no effect and 100 is complete control) ([1]; 31 g ai/ha) | Plant response rating (scale of 0 to 100 where 0 is no effect and 100 is complete control) ([7]; 62 g ai/ha)
